Data reported in US20230210853A1 (Halia Therapeutics, Inc., priority 2020, published 2023).

biological target: T1, full-length recombinant human NEK7 (Homo sapiens, UniProt Q8TDX7); experiment: NEK7 enzymatic assay ([33P]-ATP, casein substrate); type: biochemical; conditions: Table 2a; recombinant human NEK7, casein substrate
T1 construct: full-length recombinant human NEK7; GST (N); purchased SignalChem N09-10G; host or cells: Sf9 insect cells (baculovirus)
Protocol: In some embodiments, the IC50 of the compounds of Structure (I), (Ia), (Ib), (Ic), (Id), (Ie), or (If) to inhibit NEK7 was determined by the concentration of the compound required to inhibit 50% of the activity of the NEK kinase.
(§1) Casein substrate (from bovine milk, hydrolyzed and partially dephosphorylated mixture of α, β and κ caseins, obtained from Sigma Aldrich, catalogue #C4765, diluted in distilled water to a final concentration of 1 mg/mL) and full-length recombinant human NEK7 (expressed by baculovirus in Sf9 insect cells using a N-terminal GST tag, obtained from SignalChem, catalogue #N09-10G, 0.1 μg/μL) were mixed in assay buffer (20 mM Hepes pH 7.5, 10 mM MgCl2, 1 mM EGTA, 0.02% Brij35, 0.02 mg/ml BSA, 0.1 mM Na3 VO4, 2 mM DTT, 1% DMSO). Compounds of interest (serial 3-fold dilution in DMSO from 10 μM to 0.5 nM) or vehicle (1% DMSO) were dispensed into the kinase reaction mixture by Acoustic technology (Echo550, nanoliter range). After incubation at room temperature for 20 minutes, the kinase reaction was initiated by addition of [^33P]-ATP (specific activity 10 μCi/μl) and the mixture was incubated at room temperature for 2 hours. The reaction was then stopped by spotting the reaction mixture on strips of phosphocellulose P81 paper. Following washing, the radioactivity of the P81 paper was measured and kinase activity data were expressed as the percent remaining kinase activity in test samples compared to vehicle reactions. IC50 values and curve fits were obtained using Prism (GraphPad Software).
as §1, with “μg/L)” for “μg/μL)”, “Na3VO4,” for “Na3 VO4,”, “(Echo550;” for “(Echo550,”

T1 sequence (Q8TDX7 whole entry): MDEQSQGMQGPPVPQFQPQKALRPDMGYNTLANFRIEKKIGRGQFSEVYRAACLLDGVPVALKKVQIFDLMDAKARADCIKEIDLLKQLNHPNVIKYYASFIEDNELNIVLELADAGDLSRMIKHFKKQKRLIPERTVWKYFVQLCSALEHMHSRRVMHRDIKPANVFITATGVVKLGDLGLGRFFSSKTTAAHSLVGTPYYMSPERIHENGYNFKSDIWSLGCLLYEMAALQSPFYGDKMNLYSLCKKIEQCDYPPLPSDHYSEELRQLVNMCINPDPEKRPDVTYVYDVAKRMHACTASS

Question: With CC(C)(C)c1cc(NC(=O)Nc2ccc(-c3nn(C4COC4)c4ncnc(N)c34)cc2F)no1 [Ia-23, 1-(4-(4-amino-1-(oxetan-3-yl)-1H-pyrazolo[3,4-d]pyrimidin-3-yl)-2-fluorophenyl)-3-(5-(tert-butyl)isoxazol-3-yl)urea] as the compound, how does the IC50 read?
Answer: < 150 nM

Question: For CC(C)(C)c1cc(NC(=O)Nc2ccc(-c3nn(C4CCOC4)c4ncnc(N)c34)cc2F)on1 (centres unmarked) [Ia-24, 1-(4-(4-amino-1-(tetrahydrofuran-3-yl)-1H-pyrazolo[3,4-d]pyrimidin-3-yl)-2-fluorophenyl)-3-(3-(tert-butyl)isoxazol-5-yl)urea], which IC50 is on record?
Answer: < 150 nM

Question: With C=CCn1nc(-c2ccc(NC(=O)Nc3cc(C(C)(C)C)on3)c(F)c2)c2c(N)ncnc21 [Ia-26] as the compound, how does the IC50 read?
Answer: 151 to 300 nM

Question: How did the IC50 turn out when CC(C)(F)c1cc(NC(=O)Nc2ccc(-c3nn(C4CC4)c4ncnc(N)c34)cc2F)on1 [Ia-27, 1-(4-(4-amino-1-cyclopropyl-1H-pyrazolo[3,4-d]pyrimidin-3-yl)-2-fluorophenyl)-3-(3-(2-fluoropropan-2-yl)isoxazol-5-yl)urea] was run?
Answer: 501 to 1500 nM

Question: How did the IC50 turn out when Cn1nc(-c2ccc(NC(=O)Nc3cc(C(C)(C)C)no3)c(F)c2)c2c(N)ncnc21 [Ia-29, 1-(4-(4-amino-1-methyl-1H-pyrazolo[3,4-d]pyrimidin-3-yl)-2-fluorophenyl)-3-(3-(tert-butyl)isoxazol-5-yl)urea] was run?
Answer: < 150 nM

Question: CC(C)(C)c1cc(NC(=O)Nc2ccc(-c3nn(C4CC4)c4ccnc(N)c34)cc2)on1 [Ia-31, 1-(4-(4-amino-1-cyclopropyl-1H-pyrazolo[4,3-c]pyridin-3-yl)phenyl)-3-(3-(tert-butyl)isoxazol-5-yl)urea] was tested. Which IC50 did it give?
Answer: 501 to 1500 nM

Question: Which IC50 does the source give for CC(C)(C)c1cc(NC(=O)Nc2ccc(-c3nn(C4CC4)c4ncnc(N)c34)cc2F)sn1 [Ia-35, 1-(4-(4-amino-1-cyclopropyl-1H-pyrazolo[3,4-d]pyrimidin-3-yl)-2-fluorophenyl)-3-(3-(tert-butyl)isothiazol-5-yl)urea] here?
Answer: 501 to 1500 nM

Question: Which IC50 does the source give for CC(C)(C)c1nnc(NC(=O)Nc2ccc(-c3nn(C4CC4)c4ncnc(N)c34)cc2F)o1 [Ia-36, 1-(4-(4-amino-1-cyclopropyl-1H-pyrazolo[3,4-d]pyrimidin-3-yl)-2-fluorophenyl)-3-(5-(tert-butyl)-1,3,4-oxadiazol-2-yl)urea] here?
Answer: 501 to 1500 nM

Question: Nc1ncnc2c1c(-c1ccc(NC(=O)Nc3cc(C(F)(F)F)no3)c(F)c1)nn2C1CC1 [Ia-39, 1-(4-(4-amino-1-cyclopropyl-1H-pyrazolo[3,4-d]pyrimidin-3-yl)-2-fluorophenyl)-3-(3-(trifluoromethyl)isoxazol-5-yl)urea] was tested. Which IC50 did it give?
Answer: 151 to 300 nM

Question: CCC(CC)c1cc(NC(=O)Nc2ccc(-c3nn(C4CC4)c4ncnc(N)c34)cc2F)on1 [Ia-40, 1-(4-(4-amino-1-cyclopropyl-1H-pyrazolo[3,4-d]pyrimidin-3-yl)-2-fluorophenyl)-3-(3-(pentan-3-yl)isoxazol-5-yl)urea] was tested. Which IC50 did it give?
Answer: 151 to 300 nM

Question: For CC(C)c1cc(NC(=O)Nc2ccc(-c3nn(C4CC4)c4ncnc(N)c34)cc2F)on1 [Ia-41, 1-(4-(4-amino-1-cyclopropyl-1H-pyrazolo[3,4-d]pyrimidin-3-yl)-2-fluorophenyl)-3-(3-isopropylisoxazo1-5-yl)urea], which IC50 is on record?
Answer: 301 to 500 nM

Question: With CCc1cc(NC(=O)Nc2ccc(-c3nn(C4CC4)c4ncnc(N)c34)cc2F)on1 [Ia-42, 1-(4-(4-amino-1-cyclopropyl-1H-pyrazolo[3,4-d]pyrimidin-3-yl)-2-fluorophenyl)-3-(3-ethylisoxazol-5-yl)urea] as the compound, how does the IC50 read?
Answer: < 150 nM

Question: CCC(C)c1cc(NC(=O)Nc2ccc(-c3nn(C4CC4)c4ncnc(N)c34)cc2F)on1 (centres unmarked) [Ia-43, 1-(4-(4-amino-1-cyclopropyl-1H-pyrazolo[3,4-d]pyrimidin-3-yl)-2-fluorophenyl)-3-(3-(sec-butyl)isoxazol-5-yl)urea] was tested. Which IC50 did it give?
Answer: 151 to 300 nM

Question: CC1(c2cc(NC(=O)Nc3ccc(-c4nn(C5CC5)c5ncnc(N)c45)cc3F)on2)CCC1 [Ia-44, 1-(4-(4-amino-1-cyclopropyl-1H-pyrazolo[3,4-d]pyrimidin-3-yl)-2-fluorophenyl)-3-(3-(1-methylcyclobutyl)isoxazol-5-yl)urea] was tested. Which IC50 did it give?
Answer: 151 to 300 nM

Question: With Cc1cc(-c2nn(C3CC3)c3ncnc(N)c23)ccc1NC(=O)Nc1cc(C2(C(F)(F)F)CC2)no1 [Ia-48, 1-(4-(4-amino-1-cyclopropyl-1H-pyrazolo[3,4-d]pyrimidin-3-yl)-2-methylphenyl)-3-(3-(1-(trifluoromethyl)cyclopropyl)isoxazol-5-yl)urea] as the compound, how does the IC50 read?
Answer: 301 to 500 nM

Question: Nc1ncnc2c1c(-c1ccc(NC(=O)Nc3cc(C4(C(F)(F)F)CC4)no3)nc1)nn2C1COC1 [Ia-61] was tested. Which IC50 did it give?
Answer: 151 to 300 nM

same assay, conditions: Table 2b; recombinant human NEK7, casein substrate

Question: For CC(C)(C)c1cc(NC(=O)Nc2ccc(Oc3ccnc4[nH]ccc34)cc2F)n(-c2ccccc2)n1 [Ib-1, 1-(4-((1H-pyrrolo[2,3-b]pyridin-4-yl)oxy)-2-fluorophenyl)-3-(3-(tert-butyl)-1-phenyl-1H-pyrazol-5-yl)urea], which IC50 is on record?
Answer: > 1500 nM

Question: How did the IC50 turn out when CC(C)(C)c1cc(NC(=O)Nc2ccc(Oc3ccnc4[nH]ccc34)c(C(F)(F)F)c2)n(-c2ccccc2)n1 [Ib-2, 1-(4-((1H-pyrrolo[2,3-]pyridin-4-yl)oxy)-3-(TRIFLUOROMETHYL)phenyl)-3-(3-(tert-butyl)-1-phenyl-1H-pyrazol-5-yl)urea] was run?
Answer: > 1500 nM

Question: Which IC50 does the source give for CC(C)(C)c1cc(NC(=O)Nc2ccc(Oc3ncnc4[nH]ccc34)cc2F)n(-c2ccccc2)n1 [Ib-3, 1-(4-((7H-pyrrolo[2,3-d]pyrimidin-4-yl)oxy)-2-fluorophenyl)-3-(3-(tert-butyl)-1-phenyl-1H-pyrazol-5-yl)urea] here?
Answer: > 1500 nM

Question: With CC(C)(C)c1cc(NC(=O)Nc2ccc(Oc3ccnc4[nH]cc(Cl)c34)cc2F)n(-c2ccccc2)n1 [Ib-6, 1-(3-(tert-butyl)-1-phenyl-1H-pyrazol-5-yl)-3-(4-((3-chloro-1H-pyrrolo[2,3-b]pyridin-4-yl)oxy)-2-fluorophenyl)urea] as the compound, how does the IC50 read?
Answer: 501 to 1500 nM

Question: How did the IC50 turn out when Cn1nc(C(C)(C)C)cc1NC(=O)Nc1ccc(Oc2ccnc3[nH]cc(Cl)c23)cc1F [Ib-7, 1-(3-(tert-butyl)-1-methyl-1H-pyrazol-5-yl)-3-(4-((3-chloro-1H-pyrrolo[2,3-b]pyridin-4-yl)oxy)-2-fluorophenyl)urea] was run?
Answer: 501 to 1500 nM

Question: How did the IC50 turn out when Cc1cc(NC(=O)Nc2ccc(Oc3ccnc4[nH]cc(Cl)c34)cc2F)n(-c2ccc(C#N)cc2)n1 [Ib-9, 1-(4-((3-chloro-1H-pyrrolo[2,3-b]pyridin-4-yl)oxy)-2-fluorophenyl)-3-(1-(4-cyanophenyl)-3-methyl-1H-pyrazol-5-yl)urea] was run?
Answer: > 1500 nM

Question: With Cc1cc(NC(=O)Nc2ccc(Oc3ccnc4[nH]cc(Cl)c34)cc2F)n(-c2ccccc2)n1 [Ib-10, 1-(4-((3-chloro-1-pyrrolo[2,3-b]pyridin-4-yl)oxy)-2-fluorophenyl)-3-(3-methyl-1-phenyl-1H-pyrazol-5-yl)urea] as the compound, how does the IC50 read?
Answer: > 1500 nM

Question: With O=C(Nc1ccc(Oc2ccnc3[nH]cc(Cl)c23)cc1F)Nc1cc(C2CC2)nn1-c1ccccc1 [Ib-11, 1-(4-((3-chloro-1H-pyrrolo[2,3-b]pyridin-4-yl)oxy)-2-fluorophenyl)-3-(3-cyclopropyl-1-phenyl-1H-pyrazol-5-yl)urea] as the compound, how does the IC50 read?
Answer: 501 to 1500 nM

Question: With CC(C)(C)c1cc(NC(=O)Nc2ccc(Oc3ncnc4[nH]cc(Cl)c34)cc2F)n(-c2ccccc2)n1 [Ib-13, 1-(3-(tert-butyl)-1-phenyl-1H-pyrazol-5-yl)-3-(4-((5-chloro-7H-pyrrolo[2,3-b]pyrimidin-4-yl)oxy)-2-fluorophenyl)urea] as the compound, how does the IC50 read?
Answer: > 1500 nM

Question: For CC(C)(C)c1cc(NC(=O)Nc2cc(F)c(Oc3ccnc4[nH]cc(Cl)c34)cc2F)n(-c2ccccc2)n1 [Ib-15], which IC50 is on record?
Answer: > 1500 nM
